Experimental data: US11236059B2, “Targeted cytotoxic ratjadone derivatives and conjugates thereof” (HELMHOLTZ-ZENTRUM FUER INFEKTIONSFORSCHUNG GMBH, priority 2017, dated 2022)
pIC50: −log10 of the molar value. Where two headings read alike, the source gives them in different places. Numbered stars: 1 amine (or outer) side, 2 acyl side, 3 side chain; on linkers, the order of the positions; unused ones are H or OH. Square brackets hold non-standard residues; d marks the D form. Peptide text beside a SMILES is read from it. * marks the point of attachment. Pteroyl = Nc1nc2ncc(CNc3ccc(C(=O)*)cc3)nc2c(=O)[nH]1; Orn(N3) = [N-]=[N+]=NCCC[C@H](N)C(=O)O; γGlu = O=C(O)[C@H](CCC(=O)[*:2])N[*:1]

Legend:
[1] = test system: A549 (DSMZ ACC 107) cells; assay: cells; type: cell-based
Procedure: (§1) 60 μL of serial dilutions of the test compound were given to 120 μL of suspended cells (50.000/mL) in wells of 96-well plates. After 5 days of incubation growth inhibition (IC50) was determined using an MTT assay.^[64]

[2] = test system: MCF-7 (DSMZ ACC 115) cells; assay: cells; type: cell-based
Procedure: as §1

[3] = test system: SKOV-3 (DSMZ ATCC HTB 77) cells; assay: cells; type: cell-based
Procedure: as §1

[4] = test system: KB 3.1 (DSMZ ACC 158) cells; settings: for IC50: growth inhibition, 5 days of incubation, MTT assay
[5] = test system: L-929 (DSMZ ACC 2) cells; assay: Cell proliferation assay (MTT), L-929; type: cell-based; settings: read-out: IC50 [nM] L-929
Procedure: as §1

[6] = molecular target: T1, CRM1 (Homo sapiens, UniProt O14980); assay: Monitoring export inhibitory activity (translocation biosensor, HeLaRevBio cells); type: cell-based; settings: HeLa cells stably expressing translocation biosensor, 1h of incubation; read-out: IC50 [nM] CRM1 (nuclear export inhibition)
T1 construct: HeLa cells stably expressing a fluorescent translocation biosensor (HeLaRevBio); endogenous in cells; host or cells: HeLa (HeLaRevBio in A7; HeLa in A8)
T1 sequence (O14980 whole entry): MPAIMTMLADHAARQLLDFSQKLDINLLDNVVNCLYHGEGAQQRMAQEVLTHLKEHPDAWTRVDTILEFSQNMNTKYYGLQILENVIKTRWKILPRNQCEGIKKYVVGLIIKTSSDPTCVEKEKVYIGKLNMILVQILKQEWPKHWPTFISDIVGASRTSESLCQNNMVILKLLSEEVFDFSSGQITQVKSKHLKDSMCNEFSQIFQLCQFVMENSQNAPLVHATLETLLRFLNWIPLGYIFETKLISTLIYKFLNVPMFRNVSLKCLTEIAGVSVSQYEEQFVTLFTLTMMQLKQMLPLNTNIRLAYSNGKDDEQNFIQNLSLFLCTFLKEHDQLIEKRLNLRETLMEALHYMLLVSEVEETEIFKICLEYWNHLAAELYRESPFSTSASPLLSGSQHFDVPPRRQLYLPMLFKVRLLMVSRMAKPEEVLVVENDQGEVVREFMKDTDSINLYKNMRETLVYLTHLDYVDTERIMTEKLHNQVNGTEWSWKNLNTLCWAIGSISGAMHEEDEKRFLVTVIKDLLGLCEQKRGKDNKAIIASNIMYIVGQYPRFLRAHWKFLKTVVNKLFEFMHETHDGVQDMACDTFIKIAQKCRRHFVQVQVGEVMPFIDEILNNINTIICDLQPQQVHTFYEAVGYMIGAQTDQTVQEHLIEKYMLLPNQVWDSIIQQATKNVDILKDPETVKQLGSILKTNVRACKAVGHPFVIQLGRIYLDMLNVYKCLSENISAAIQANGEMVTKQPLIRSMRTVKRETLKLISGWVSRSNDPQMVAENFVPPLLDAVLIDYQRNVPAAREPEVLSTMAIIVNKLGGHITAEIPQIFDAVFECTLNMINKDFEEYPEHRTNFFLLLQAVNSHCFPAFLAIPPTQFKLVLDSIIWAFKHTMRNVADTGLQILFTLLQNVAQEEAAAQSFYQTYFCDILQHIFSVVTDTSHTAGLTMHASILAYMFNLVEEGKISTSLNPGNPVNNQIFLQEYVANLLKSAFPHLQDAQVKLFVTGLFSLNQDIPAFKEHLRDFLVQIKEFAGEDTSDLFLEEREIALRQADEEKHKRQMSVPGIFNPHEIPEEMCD
Procedure: Export inhibitory ability of compounds was evaluated with the translocation biosensor system. This cellular assay depends on a recombinantly expressed fusion protein consisting of a nuclear localization signal (SV40-NLS), glutathione S-transferase (GST), green fluorescent protein (GFP) and a nuclear export signal (HIV1-RevNES). Due to the two transport signals (NLS/NES), the biosensor is permanently shuttling between nucleus and cytoplasm but resides prominently in the cytoplasm due to a comparatively stronger NES. Export inhibiting compound induce a nuclear accumulation of the GFP-signal^[65,66] Cell lines were maintained as recommended by the American Type Culture Collection in DMEM containing 5% glutamine (Thermo Fisher Scientific, Waltham, USA) supplemented with 10% FBS (Thermo Fisher Scientific, Waltham, USA). For quantifying the nuclear export inhibitory effect, HeLa cells stably expressing a fluorescent translocation biosensor (HeLaRevBio)^[67] were seeded into black 96 well μclear plates (Greiner, Germany). They next day compounds were added covering an appropriate concentration range. After 1h of incubation, cells were fixed in 4% PFA for 10 min and permeabilized with 0.1% Triton X 100 in PBS for 5 min. After washing with PBS nuclei were labeled with Hoechst H33342 (30 min 10 μg/ml). The intracellular distribution of the biosensor-dependent GFP signal was quantitatively evaluated with the high content imaging system ImageXpress MicroXLS (Molecular Devices, Sunnyvale, USA). By using the translocation enhanced application module (Molecular Devices, Sunnyvale, USA) the GFP-intensity was quantified in the cytoplasm and nuclear region. As final readout the difference of Mean Inner and Mean Outer Intensity was calculated. IC50s of nuclear export inhibition were calculated using Sigma Plot with four parameter logistics curve regression (Systat Software GmbH, Erkrath, Germany). […] The following day compounds were added at 125 nM final concentration.

[7] = test system: KB 3.1 (DSMZ ACC 158) cells; assay: cells; settings: Homo sapiens, KB 3-1, 120 h, read-out: IC50 [nM] KB-3.1, growth inhibition, 5 days of incubation, MTT assay
[8] = control compounds; cited from earlier work
[9] = growth inhibition, 5 days of incubation, MTT assay, read-out: IC50 [nM] A-549 (carrier molecules)
[10] = growth inhibition, 5 days of incubation, MTT assay, read-out: IC50 [nM] MCF-7 (carrier molecules)
[11] = growth inhibition, 5 days of incubation, MTT assay, read-out: IC50 [nM] SK-OV-3 (carrier molecules)
[12] = read-out: IC50 [nM] KB-3.1 (carrier molecules)

`CC(C)C[C@H](NC(=O)C(CCCN=[N+]=[N-])NC(=O)[C@H](Cc1ccc(O)cc1)NC(=O)[C@H](CO)NC(=O)[C@H](Cc1c[nH]c2ccccc12)NC(=O)[C@H](Cc1c[nH]cn1)NC(=O)[C@@H]1CCC(=O)N1)C(=O)N[C@@H](CCCNC(=N)N)C(=O)N1CCC[C@H]1C(=O)NCC(N)=O` (stereo in doubt) [D-N3-Orn-LHRH, (S)-1-(((R)-2-((S)-2-((S)-2-((S)-2-((S)-3-(1H-imidazol-4-yl)-2-((S)-5-oxopyrrolidine-2-carboxamido)propanamido)-3-(1H-indol-3-yl)propanamido)-3-hydroxypropanamido)-3-(4-hydroxyphenyl)propanamido)-5-azidopentanoyl)-L-leucyl-L-arginyl)-N-(2-amino-2-oxoethyl)pyrrolidine-2-carboxamide] gave a pIC50 [1] of 6.50, a pIC50 [2] of 7.32 and a pIC50 [3] of 6.72. It also gave a pIC50 [4] of 5.96.
`C/C=C/[C@@H]1O[C@H](C(=O)/C=C/C=C(\C)C[C@@H](C)/C=C(C)\C=C\[C@H]2CC=CC(=O)O2)C[C@@H](O)[C@@H]1C` [16-Oxo-Ratjadone 8, (R)-6-((R,1E,3Z,7E,9E)-11-((2S,4R,5S,6S)-4-hydroxy-5-methyl-6-((E)-prop-1-en-1-yl)tetrahydro-2H-pyran-2-yl)-3,5,7-trimethyl-11-oxoundeca-1,3,7,9-tetraen-1-yl)-5,6-dihydro-2H-pyran-2-one] gave an IC50 ([1]; Homo sapiens, A549, 120 h, read-out: IC50 [nM] A-549, growth inhibition, 5 days of incubation, MTT assay) of 1.76 nM, an IC50 ([2]; Homo sapiens, MCF7, 120 h, read-out: IC50 [nM] MCF-7, growth inhibition, 5 days of incubation, MTT assay) of 0.22 nM and an IC50 ([3]; Homo sapiens, SK-OV-3, 120 h, read-out: IC50 [nM] SK-OV-3, growth inhibition, 5 days of incubation, MTT assay) of 0.24 nM. For the same compound, the IC50 ([5]; Mus musculus, L929, 120 h) was 12.6 nM, the IC50 [6] was 52.5 nM and the IC50 [7] was 2.57 nM.
With `C/C=C/[C@@H]1O[C@H]([C@H](O)/C=C/C=C(\C)C[C@@H](C)/C=C(C)\C=C\[C@H]2CC=CC(=O)O2)CC(=O)[C@@H]1C` [19-Oxo-Ratjadone 9, (R)-6-((1E,3Z,5R,7E,9E,9E,11R)-11-hydroxy-3,5,7-trimethyl-11-((2S,5R,6S)-5-methyl-4-oxo-6-((E)-prop-1-en-1-yl)tetrahydro-2H-pyran-2-yl)undeca-1,3,7,9-tetraen-1-yl)-5,6-dihydro-2H-pyran-2-one] the IC50 ([1]; growth inhibition, 5 days of incubation, MTT assay, read-out: IC50 [nM] A-549) was 0.1 nM, the IC50 ([2]; growth inhibition, 5 days of incubation, MTT assay, read-out: IC50 [nM] MCF-7) was 0.48 nM and the IC50 ([3]; growth inhibition, 5 days of incubation, MTT assay, read-out: IC50 [nM] SK-OV-3) was 0.16 nM. The IC50 ([5]; growth inhibition, 5 days of incubation, MTT assay) was 24.3 nM, the IC50 [6] was 13.3 nM and the IC50 ([4]; read-out: IC50 [nM] KB-3.1) was 0.36 nM.
`CC(C)C[C@H](NC(=O)[C@@H](CCCN=[N+]=[N-])NC(=O)[C@H](Cc1ccc(O)cc1)NC(=O)[C@H](CO)NC(=O)[C@H](Cc1c[nH]c2ccccc12)NC(=O)[C@H](Cc1c[nH]cn1)NC(=O)[C@@H]1CCC(=O)N1)C(=O)N[C@@H](CCCNC(=N)N)C(=O)N1CCC[C@H]1C(=O)NNC(N)=O` [D-N3-Orn-Goserellin, (S)—N-((6S,9S,12R,15S,18S,21S,24S)-21-((1H-indol-3-yl)methyl)-1-amino-12-(3-azidopropyl)-6-((S)-2-(2-carbamoylhydrazine-1-carbonyl)pyrrolidine-1-carbonyl)-15-(4-hydroxybenzyl)-18-(hydroxymethyl)-25-(1H-imidazol-4-yl)-1-imino-9-isobutyl-8,11,14,17,20,23-hexaoxo-2,7,10,13,16,19,22-heptaazapentacosan-24-yl)-5-oxopyrrolidine-2-carboxamide] showed an IC50 [1, 9] greater than 663000 nM, an IC50 [2, 10] greater than 663000 nM and an IC50 [3, 11] greater than 663000 nM. For the same compound, the IC50 [4, 12] was greater than 663000 nM.
Compound `[N-]=[N+]=NCCC[C@H](NC(=O)[C@@H](CC(=O)O)NC(=O)[C@@H](CC(=O)O)NC(=O)[C@@H](CC(=O)O)NC(=O)[C@@H](CC(=O)O)NC(=O)[C@@H](CC(=O)O)NC(=O)CC[C@H](NC(=O)c1ccc(NCc2cnc3nc(N)nc(O)c3n2)cc1)C(=O)O)C(=O)O` [FA-N3-5, N^2-(4-(((2-amino-4-hydroxypteridin-6-yl)methyl)amino)benzoyl)-N5-((R)-1-(((R)-1-(((R)-1-(((R)-1-(((R)-1-(((S)-4-azido-1-carboxybutyl)amino)-3-carboxy-1-oxopropan-2-yl)amino)-3-carboxy-1-oxopropan-2-yl)amino)-3-carboxy-1-oxopropan-2-yl)amino)-3-carboxy-1-oxopropan-2-yl)amino)-3-carboxy-1-oxopropan-2-yl)-L-glutamine] ({Pteroyl-γGlu}-[dD][dD][dD][dD][dD][Orn(N3)]-OH) has an IC50 [1, 9] greater than 86400 nM and an IC50 [4, 12] greater than 86400 nM.
Compound `[N-]=[N+]=Nc1ccc(C(=O)NCCCC[C@H](NC(=O)CC[C@H](NC(=O)CC[C@H](NC(=O)c2ccc(NCc3cnc4nc(N)nc(O)c4n3)cc2)C(=O)O)C(=O)O)C(=O)O)cc1` [FA-N3-6, (3S,8S,13S)-1-(4-(((2-amino-4-hydroxypteridin-6-yl)methyl)amino)phenyl)-19-(4-azidophenyl)-1,6,11,19-tetraoxo-2,7,12,18-tetraazanonadecane-3,8,13-tricarboxylic acid] has an IC50 [1, 9] greater than 118000 nM and an IC50 [4, 12] greater than 118000 nM.
For `[N-]=[N+]=NCCC[C@H](NC(=O)CC[C@H](NC(=O)c1ccc(NCc2cnc3nc(N)nc(O)c3n2)cc1)C(=O)O)C(=O)N[C@H](CCCCN)C(=O)O` [FA-N3-9, ((S)-2-((S)-4-(4-(((2-amino-4-hydroxypteridin-6-yl)methyl)amino)benzamido)-4-carboxybutanamido)-5-azidopentanoyl)-D-lysine], the IC50 [1, 9] was greater than 140000 nM and the IC50 [4, 12] was greater than 140000 nM.
`CC(C)C[C@H](NC(=O)[C@H](CCCN=[N+]=[N-])NC(=O)[C@H](Cc1ccc(O)cc1)NC(=O)[C@H](CO)NC(=O)[C@H](Cc1c[nH]c2ccccc12)NC(=O)[C@H](Cc1c[nH]cn1)NC(=O)[C@@H]1CCC(=O)N1)C(=O)N[C@@H](CCCNC(=N)N)C(=O)N1CCC[C@H]1C(=O)NCC(N)=O` [L-N3-Orn-LHRH, (S)-1-(((S)-2-((S)-2-((S)-2-((S)-2-((S)-3-(1H-imidazol-4-yl)-2-((S)-5-oxopyrrolidine-2-carboxamido)propanamido)-3-(1H-indol-3-yl)propanamido)-3-hydroxypropanamido)-3-(4-hydroxyphenyl)propanamido)-5-azidopentanoyl)-L-leucyl-L-arginyl)-N-(2-amino-2-oxoethyl)pyro-lidine-2-carboxamide] showed an IC50 [1, 9] greater than 727000 nM, an IC50 [2, 10] greater than 727000 nM and an IC50 [3, 11] greater than 727000 nM. The IC50 [4, 12] was greater than 727000 nM.
Work on `CC(C)C[C@H](NC(=O)CNC(=O)[C@H](Cc1ccc(O)cc1)NC(=O)[C@H](CO)NC(=O)[C@H](Cc1c[nH]c2ccccc12)NC(=O)[C@H](Cc1c[nH]cn1)NC(=O)[C@@H]1CCC(=O)N1)C(=O)N[C@@H](CCCNC(=N)N)C(=O)N1CCC[C@H]1C(=O)NCC(N)=O` [LHRH, (S)—N-(2-amino-2-oxoethyl)-1-(((S)-5-oxopyrrolidine-2-carbonyl)-L-histidyl-L-tryptophyl-L-seryl-L-tyrosylglycyl-L-leucyl-L-arginyl)pyrrolidine-2-carboxamide, reference compound] yielded an IC50 [1, 9] greater than 405000 nM, an IC50 [2, 10] greater than 405000 nM and an IC50 [3, 11] greater than 405000 nM. For the same compound, the IC50 [4, 12] was greater than 405000 nM.
For `CCN(CC)CCOC(=O)c1ccc(N)cc1` [Procaine, procaine], the “stability in mouse plasma” value [8] is listed as “unstable”.
For `CCCOc1cc(N)ccc1C(=O)OCCN(CC)CC` [propoxycaine], the “stability in mouse plasma” value [8] is given as “unstable”.
